Here are results for 22 compounds from patent US7902361B2, “Pyrimidin-4-yl-3, 4-thione compounds and their use in therapy” (Cyclacel Limited, priority 2003, dated 2011).

What all share (assay type): biochemical
The target in test [1] is CDK1/cyclin B (Homo sapiens, UniProt P06493). In words: Kinase assay CDK1/cyclin B (radioactive phosphate incorporation). Conditions: Ki calculated (Cheng-Prusoff) from experimentally determined IC50 and Km,ATP; read-out: Kinase Inhibition Ki CDK1 - cyclin B. How it is done: (§1) The compounds from the examples above were investigated for their ability to inhibit the enzymatic activity of various protein kinases. This was achieved by measurement of incorporation of radioactive phosphate from ATP into appropriate polypeptide substrates. Recombinant protein kinases and kinase complexes were produced or obtained commercially. Assays were performed using 96-well plates and appropriate assay buffers (typically 25 mM β-glycerophosphate, 20 mM MOPS, 5 mM EGTA, 1 mM DTT, 1 mM […], pH 7.4), into which were added 2-4 μg of active enzyme with appropriate substrates. […] Reactions were stopped on ice, followed by filtration through p81 filterplates or GF/C filterplates (Whatman Polyfiltronics, Kent, UK). After washing 3 times with 75 mM aq orthophosphoric acid, plates were dried, scintillant added and incorporated radioactivity measured in a scintillation counter (TopCount, Packard Instruments, Pangbourne, Berks, UK). Compounds for kinase assay were made up as 10 mM stocks in DMSO and diluted into 10% DMSO in assay buffer.
CDK1/cyclin B, sequence (P06493 whole entry, species assumed): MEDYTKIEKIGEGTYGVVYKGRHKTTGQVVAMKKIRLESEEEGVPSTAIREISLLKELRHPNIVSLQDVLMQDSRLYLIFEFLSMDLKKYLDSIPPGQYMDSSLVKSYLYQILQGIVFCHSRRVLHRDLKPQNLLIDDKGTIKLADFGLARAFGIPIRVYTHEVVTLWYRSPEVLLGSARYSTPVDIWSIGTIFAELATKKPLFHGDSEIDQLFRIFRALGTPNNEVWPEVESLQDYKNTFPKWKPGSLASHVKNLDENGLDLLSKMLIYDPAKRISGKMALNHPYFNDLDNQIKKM
CDK1/cyclin B, sequence (P14635 whole entry partner, species assumed): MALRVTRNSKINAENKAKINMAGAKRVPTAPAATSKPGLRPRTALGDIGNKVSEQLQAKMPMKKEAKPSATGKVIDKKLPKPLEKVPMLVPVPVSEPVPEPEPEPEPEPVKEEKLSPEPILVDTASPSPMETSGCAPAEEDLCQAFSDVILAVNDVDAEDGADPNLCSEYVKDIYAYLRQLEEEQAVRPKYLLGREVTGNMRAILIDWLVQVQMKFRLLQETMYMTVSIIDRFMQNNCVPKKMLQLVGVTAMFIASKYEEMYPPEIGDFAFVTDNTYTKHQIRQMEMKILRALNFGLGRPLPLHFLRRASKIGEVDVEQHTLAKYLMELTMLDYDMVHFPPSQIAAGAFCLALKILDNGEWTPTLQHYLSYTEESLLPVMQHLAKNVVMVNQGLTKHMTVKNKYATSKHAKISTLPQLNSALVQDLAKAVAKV

Test [2] addresses CDK2/cyclin E (Homo sapiens, UniProt P24941). Kind of test: Kinase assay CDK2/cyclin E. Conditions: Ki calculated (Cheng-Prusoff) from experimentally determined IC50 and Km,ATP; read-out: Kinase Inhibition Ki CDK2 - cyclin E. The method, then:
as §1

Test [3] has as its target CDK2/cyclin A (Homo sapiens, UniProt P24941). Kind of test: Kinase assay CDK2/cyclin A. The settings on record: Ki calculated (Cheng-Prusoff) from experimentally determined IC50 and Km,ATP; read-out: Kinase Inhibition Ki CDK2 - cyclin A. How it is done:
as §1

Test [4] addresses CDK4/cyclin D1 (Homo sapiens, UniProt P11802). In words: Kinase assay CDK4/cyclin D1. The settings on record: Ki calculated (Cheng-Prusoff) from experimentally determined IC50 and Km,ATP; read-out: Kinase Inhibition Ki CDK4 - cyclin D1. The method, then: (§2) The compounds from the examples above were investigated for their ability to inhibit the enzymatic activity of various protein kinases. This was achieved by measurement of incorporation of radioactive phosphate from ATP into appropriate polypeptide substrates. Recombinant protein kinases and kinase complexes were produced or obtained commercially. Assays were performed using 96-well plates and appropriate assay buffers (typically 25 mM β-glycerophosphate, 20 mM MOPS, 5 mM EGTA, 1 mM DTT, 1 mM […], pH 7.4), into which were added 2-4 μg of active enzyme with appropriate substrates. The reactions were initiated by addition of Mg/ATP mix (15 mM MgCl2+100 μM ATP with 30-50 kBq per well of [γ-^32P]-ATP) and mixtures incubated as required at 30° C. Reactions were stopped on ice, followed by filtration through p81 filterplates or GF/C filterplates (Whatman Polyfiltronics, Kent, UK). After washing 3 times with 75 mM aq orthophosphoric acid, plates were dried, scintillant added and incorporated radioactivity measured in a scintillation counter (TopCount, Packard Instruments, Pangbourne, Berks, UK). Compounds for kinase assay were made up as 10 mM stocks in DMSO and diluted into 10% DMSO in assay buffer.

For test [5], the target named is CDK7/cyclin H (Homo sapiens, UniProt P50613). In words: Kinase assay CDK7/cyclin H. The settings on record: Ki calculated (Cheng-Prusoff) from experimentally determined IC50 and Km,ATP; read-out: Kinase Inhibition Ki CDK7 - cyclin H. How it is done:
as §2

Test [6] has as its target CDK9/cyclin T1 (Homo sapiens, UniProt P50750). In words: Kinase assay CDK9/cyclin T1. Conditions: Ki calculated (Cheng-Prusoff) from experimentally determined IC50 and Km,ATP; read-out: Kinase Inhibition Ki CDK9 - cyclin T1. How it is done: as §2

CDK7/cyclin H, sequence (P50613 whole entry, species assumed): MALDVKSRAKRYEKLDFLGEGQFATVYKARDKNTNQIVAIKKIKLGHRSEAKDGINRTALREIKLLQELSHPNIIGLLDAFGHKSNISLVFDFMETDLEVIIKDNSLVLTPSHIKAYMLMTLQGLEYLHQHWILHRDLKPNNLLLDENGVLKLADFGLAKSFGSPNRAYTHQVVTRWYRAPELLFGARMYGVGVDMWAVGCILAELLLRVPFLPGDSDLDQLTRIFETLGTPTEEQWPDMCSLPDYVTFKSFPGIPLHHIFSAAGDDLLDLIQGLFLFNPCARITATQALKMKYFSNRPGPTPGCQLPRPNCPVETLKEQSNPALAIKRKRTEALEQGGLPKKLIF
CDK7/cyclin H, sequence (P51946 whole entry partner, species assumed): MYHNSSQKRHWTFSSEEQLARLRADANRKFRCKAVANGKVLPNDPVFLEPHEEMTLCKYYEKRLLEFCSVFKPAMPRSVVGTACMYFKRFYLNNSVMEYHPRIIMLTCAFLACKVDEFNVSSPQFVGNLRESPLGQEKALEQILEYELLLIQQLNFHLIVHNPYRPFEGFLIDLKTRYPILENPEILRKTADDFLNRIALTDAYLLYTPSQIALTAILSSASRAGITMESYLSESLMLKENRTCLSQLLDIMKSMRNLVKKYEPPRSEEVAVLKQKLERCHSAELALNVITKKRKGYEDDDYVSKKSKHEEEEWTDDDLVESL
CDK4/cyclin D1, sequence (P11802 whole entry, species assumed): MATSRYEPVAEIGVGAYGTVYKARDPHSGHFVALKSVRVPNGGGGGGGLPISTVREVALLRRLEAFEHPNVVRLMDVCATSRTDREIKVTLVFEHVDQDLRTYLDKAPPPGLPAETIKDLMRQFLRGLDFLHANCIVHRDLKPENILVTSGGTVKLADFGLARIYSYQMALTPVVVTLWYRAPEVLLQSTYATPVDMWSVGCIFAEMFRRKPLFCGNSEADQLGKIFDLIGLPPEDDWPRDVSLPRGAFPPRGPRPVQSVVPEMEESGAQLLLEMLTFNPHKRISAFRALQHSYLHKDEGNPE
CDK4/cyclin D1, sequence (P24385 whole entry partner, species assumed): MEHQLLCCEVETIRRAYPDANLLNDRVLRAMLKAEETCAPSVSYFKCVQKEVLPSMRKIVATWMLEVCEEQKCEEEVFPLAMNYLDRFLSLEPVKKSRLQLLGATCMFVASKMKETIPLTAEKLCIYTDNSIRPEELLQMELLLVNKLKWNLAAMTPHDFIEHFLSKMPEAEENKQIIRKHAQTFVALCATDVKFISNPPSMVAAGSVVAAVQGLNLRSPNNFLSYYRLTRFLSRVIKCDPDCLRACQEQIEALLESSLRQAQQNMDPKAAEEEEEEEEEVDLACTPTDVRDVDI
CDK9/cyclin T1, sequence (P50750 whole entry, species assumed): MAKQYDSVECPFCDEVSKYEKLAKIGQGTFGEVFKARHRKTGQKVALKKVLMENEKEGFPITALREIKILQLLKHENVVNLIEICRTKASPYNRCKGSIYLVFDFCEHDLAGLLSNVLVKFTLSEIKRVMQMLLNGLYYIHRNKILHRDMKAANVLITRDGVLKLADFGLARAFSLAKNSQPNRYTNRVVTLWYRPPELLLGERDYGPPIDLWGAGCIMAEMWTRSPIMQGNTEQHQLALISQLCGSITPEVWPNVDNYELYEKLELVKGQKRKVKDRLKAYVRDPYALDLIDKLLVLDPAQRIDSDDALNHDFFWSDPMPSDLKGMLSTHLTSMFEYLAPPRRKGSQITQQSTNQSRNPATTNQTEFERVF
CDK9/cyclin T1, sequence (O60563 whole entry partner, species assumed): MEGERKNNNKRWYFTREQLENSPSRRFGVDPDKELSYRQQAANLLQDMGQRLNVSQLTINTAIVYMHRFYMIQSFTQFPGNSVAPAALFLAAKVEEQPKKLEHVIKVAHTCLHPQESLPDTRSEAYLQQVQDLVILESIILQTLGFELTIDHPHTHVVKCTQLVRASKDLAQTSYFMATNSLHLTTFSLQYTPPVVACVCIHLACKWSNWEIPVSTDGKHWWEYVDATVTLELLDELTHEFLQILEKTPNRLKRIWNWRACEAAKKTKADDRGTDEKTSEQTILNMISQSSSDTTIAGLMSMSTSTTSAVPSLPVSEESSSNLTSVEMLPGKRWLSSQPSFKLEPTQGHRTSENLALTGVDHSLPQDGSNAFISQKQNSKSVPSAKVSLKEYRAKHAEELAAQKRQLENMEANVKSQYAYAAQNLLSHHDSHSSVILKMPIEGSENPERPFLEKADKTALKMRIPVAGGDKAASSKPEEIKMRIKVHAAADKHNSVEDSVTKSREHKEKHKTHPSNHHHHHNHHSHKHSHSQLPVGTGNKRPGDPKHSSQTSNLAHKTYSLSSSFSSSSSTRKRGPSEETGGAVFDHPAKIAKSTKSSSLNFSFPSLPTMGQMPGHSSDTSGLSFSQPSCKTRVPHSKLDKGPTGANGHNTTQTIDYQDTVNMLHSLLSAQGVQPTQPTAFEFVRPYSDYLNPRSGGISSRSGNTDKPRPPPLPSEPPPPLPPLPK

As to `COc1ccc(Nc2nccc(-c3sc(=O)n(CCC(C)C)c3C)n2)cn1` [Compound 35, 5-[2-(6-Methoxy-pyridin-3-ylamino)-pyrimidin-4-yl]-4-methyl-3-(3-methyl-butyl)-3H-thiazol-2-one], the inhibition constant (Ki) (as a rule, a dissociation constant, usually derived from enzyme kinetics or from competition with a known ligand) is 2600 nM in test [1]; 660 nM in test [2]; 190 nM in test [3]; 2000 nM in test [4]; 200 nM in test [5]; 490 nM in test [6].

As to `Cc1ccc([N+](=O)[O-])cc1Nc1nccc(-c2sc(=O)n(C)c2C)n1` [Compound 20, 3,4-Dimethyl-5-[2-(2-methyl-5-nitro-phenylamino)-pyrimidin-4-yl]-3H-thiazol-2-one], the values for the Ki in test [2], in test [5] and in test [6] were 6500 nM, 910 nM and 85 nM, respectively.

For the compound `Cc1ccc(Nc2nccc(-c3sc(=O)n(C)c3C)n2)cc1I` [Compound 14, 5-[2-(3-Iodo-4-methyl-phenylamino)-pyrimidin-4-yl]-3,4-dimethyl-3H-thiazol-2-one], the Ki is 700 nM in test [1]; 350 nM in test [2]; 840 nM in test [3]; 2100 nM in test [4]; 35 nM in test [6].

With `Cc1c(-c2ccnc(Nc3cc([N+](=O)[O-])ccc3N(C)C)n2)sc(=O)n1C` [Compound 37, 5-[2-(2-Dimethylamino-5-nitro-phenylamino)-pyrimidin-4-yl]-3,4-dimethyl-3H-thiazol-2-one], the Ki in test [1] was 9900 nM; in test [2], 8600 nM.

Turning to `CCn1c(C)c(-c2ccnc(Nc3cccc(OC)c3)n2)sc1=O` [Compound 50, 3-Ethyl-5-[2-(3-methoxy-phenylamino)-pyrimidin-4-yl]-4-methyl-3H-thiazol-2-one], the Ki is 140 nM in test [5] and 80 nM in test [6].

For `Cc1c(-c2ccnc(Nc3ccc(Cl)cc3)n2)sc(=O)n1CCC(C)C` [Compound 31, 5-[2-(4-Chloro-phenylamino)-pyrimidin-4-yl]-4-methyl-3-(3-methyl-butyl)-3H-thiazol-2-one], the Ki in test [5] is 430 nM.

Turning to `CCn1c(C)c(-c2ccnc(Nc3ccc(N(C)C)c([N+](=O)[O-])c3)n2)sc1=O` [Compound 29, 5-[2-(4-Dimethylamino-3-nitro-phenylamino)-pyrimidin-4-yl]-3-ethyl-4-methyl-3H-thiazol-2-one], the Ki in test [2] was 33 nM; in test [4] it was 170 nM; in test [5], 43 nM; in test [6] it was 7 nM.

Turning to `Cc1c(-c2ccnc(Nc3ccc(F)c([N+](=O)[O-])c3)n2)sc(=O)n1C` [Compound 10, 5-[2-(4-Fluoro-3-nitro-phenylamino)-pyrimidin-4-yl]-3,4-dimethyl-3H-thiazol-2-one], the Ki in test [1] was 280 nM; in test [2] it was 130 nM; in test [3], 21 nM; in test [4], 990 nM; in test [5], 520 nM.

As for `CCn1c(C)c(-c2ccnc(Nc3ccc(Cl)c(C(=O)OC)c3)n2)sc1=O` [Compound 25, 2-Chloro-5-[4-(3-ethyl-4-methyl-2-oxo-2,3-dihydro-thiazol-5-yl)-pyrimidin-2-ylamino]-benzoic acid methyl ester], the Ki in test [2] is 2700 nM; in test [3], 23000 nM; in test [6], 4400 nM.

In the case of `CCn1c(C)c(-c2ccnc(Nc3ccc(Cl)c(C(=O)O)c3)n2)sc1=O` [Compound 24, 2-Chloro-5-[4-(3-ethyl-4-methyl-2-oxo-2,3-dihydro-thiazol-5-yl)-pyrimidin-2-ylamino]-benzoic acid], the Ki was 6300 nM in test [1]; 1900 nM in test [2]; 1100 nM in test [3]; 24000 nM in test [4]; 370 nM in test [6].

For `Cc1cc(Nc2nccc(-c3sc(=O)n(C)c3C)n2)ccc1F` [Compound 12, 5-[2-(4-Fluoro-3-methyl-phenylamino)-pyrimidin-4-yl]-3,4-dimethyl-3H-thiazol-2-one], the Ki is 380 nM in test [1], 66 nM in test [2] and 24 nM in test [6].

With `Cc1c(-c2ccnc(Nc3ccc(O)cc3)n2)sc(=O)n1C` [Compound 3, 5-[2-(4-Hydroxy-phenylamino)-pyrimidin-4-yl]-3,4-dimethyl-3H-thiazol-2-one], in test [6], the Ki is 0.7 nM.

For `Cc1c(-c2ccnc(N)n2)sc(=O)n1C` [Compound 84, 5-(2-Amino-pyrimidin-4-yl)-3,4-dimethyl-3H-thiazol-2-one], the Ki in test [6] is 130 nM.

`CC(=O)Nc1nccc(-c2sc(=O)n(C)c2C)n1` [Compound 85, N-[4-(3,4-Dimethyl-2-oxo-2,3-dihydro-thiazol-5-yl)-pyrimidin-2-yl]-acetamide]: the Ki in test [6] is 290 nM.

In the case of `COc1ccc(Nc2nccc(-c3sc(=O)n(C)c3C)n2)cc1` [Compound 6, 5-[2-(4-Methoxy-phenylamino)-pyrimidin-4-yl]-3,4-dimethyl-3H-thiazol-2-one], the inhibition constant Ki is 260 nM in test [1]; 380 nM in test [2]; 190 nM in test [3]; 570 nM in test [4]; 920 nM in test [5].

Take `Cc1c(-c2ccnc(Nc3cccc(O)c3)n2)sc(=O)n1C` [Compound 7, 5-[2-(3-Hydroxy-phenylamino)-pyrimidin-4-yl]-3,4-dimethyl-3H-thiazol-2-one]: the Ki in test [1] is 130 nM; in test [2], 43 nM; in test [3], 25 nM; in test [4] it was 540 nM; in test [5] it was 620 nM.

For `Cc1c(-c2ccnc(Nc3ccc(N4CCOCC4)cc3)n2)sc(=O)n1C` [Compound 9, 3,4-Dimethyl-5-[2-(4-morpholin-4-yl-phenylamino)-pyrimidin-4-yl]-3H-thiazol-2-one], the Ki in test [1] was 5200 nM; in test [2], 590 nM; in test [3] it was 170 nM; in test [4] it was 670 nM; in test [5], 1300 nM.

`Cc1c(-c2ccnc(Nc3ccc(Cl)cc3)n2)sc(=O)n1C` [Compound 4, 5-[2-(4-Chloro-phenylamino)-pyrimidin-4-yl]-3,4-dimethyl-3H-thiazol-2-one]: the Ki was 460 nM in test [1]; 130 nM in test [2]; 200 nM in test [3]; 1600 nM in test [4]; 4100 nM in test [5].

`Cc1c(-c2ccnc(Nc3cccc(C(F)(F)F)c3)n2)sc(=O)n1C` [Compound 19, 3,4-Dimethyl-5-[2-(3-trifluoromethyl-phenylamino)-pyrimidin-4-yl]-3H-thiazol-2-one]: the Ki in test [2] is 1700 nM; in test [5], 5100 nM; in test [6], 1800 nM.

Consider `Cc1c(-c2ccnc(Nc3ccc(Cl)nc3)n2)sc(=O)n1CCC(C)C` [Compound 34, 5-[2-(6-Chloro-pyridin-3-ylamino)-pyrimidin-4-yl]-4-methyl-3-(3-methyl-butyl)-3H-thiazol-2-one], for which the Ki in test [1] is 3500 nM; in test [2], 1100 nM; in test [3], 600 nM; in test [5] it was 230 nM; in test [6], 1800 nM.

Take `Cc1c(-c2ccnc(NCc3cccnc3)n2)sc(=O)n1C` [Compound 83, 3,4-Dimethyl-5-{2-[(pyridin-3-ylmethyl)-amino]-pyrimidin-4-yl}-3H-thiazol-2-one]: the inhibition constant (Ki) in test [2] is 1600 nM; in test [4], 1300 nM; in test [6] it was 320 nM.

As to `Cc1c(-c2ccnc(Nc3ccc(Cl)nc3)n2)sc(=O)n1C` [Compound 32, 5-[2-(6-Chloro-pyridin-3-ylamino)-pyrimidin-4-yl]-3,4-dimethyl-3H-thiazol-2-one], the Ki in test [1] is 500 nM; in test [2], 68 nM; in test [6], 6.5 nM.
